ChEMBL document CHEMBL1142829, “Structure-antioxidant activity relationships of flavonoids isolated from the resinous exudate of Heliotropium sinuatum” (Bioorg Med Chem Lett, 2005)

Assay: Ratio between antioxidant activities determined employing ABTS and DPPH methods

Compound	Ratio
COc1cc(OC)c2c(=O)c(OC)c(-c3ccc(O)c(OC)c3)oc2c1	125
COc1cc(O)cc2oc(-c3ccccc3)cc(=O)c12	170
COc1cc(-c2oc3cc(O)cc(OC)c3c(=O)c2OC)ccc1O	6.6
COc1c(-c2ccccc2)oc2cc(O)cc(OC)c2c1=O	6.8
COc1cc(O)cc2oc(-c3ccccc3)c(OC(C)=O)c(=O)c12	160

Next, values leading:

Ratio	Compound
143	COc1cc(O)cc2oc(-c3ccc(O)cc3)cc(=O)c12
126	COc1ccc(-c2cc(=O)c3c(OC)cc(O)cc3o2)cc1O
3.4	COc1cc(O)c2c(=O)cc(-c3ccc(O)c(O)c3)oc2c1
